The source of these data is ChEMBL document CHEMBL1649327, “In vitro antimicrobial activity and mutant prevention concentration of colistin against Acinetobacter baumannii” (Antimicrob Agents Chemother, 2010).

Values after ≈ are worked out from the molar mass of the structure shown.

In series [1] the test system is Acinetobacter baumannii. The experiment in a line: Antimicrobial activity against Acinetobacter baumannii assessed as resistant isolate by broth dilution method in presence of cilastatin. The class given is functional. Background: Dilution methods test growth across graded concentrations, often in twofold steps.
For series [2], the system named is Acinetobacter baumannii. The experiment in a line: Antimicrobial activity against Acinetobacter baumannii by broth dilution method in presence of cilastatin. In kind it is functional.
Series [3] deals with Acinetobacter baumannii. The experiment in a line: Antimicrobial activity against Acinetobacter baumannii assessed as susceptible isolate by broth dilution method in presence of cilastatin. The class given is functional.
Series [4] concerns Acinetobacter baumannii. The experiment in a line: Antimicrobial activity against Acinetobacter baumannii assessed as resistant isolate by broth dilution method in presence of beta-lactamase inhibitor Sulbactam. In kind it is functional.
Series [5] deals with Acinetobacter baumannii. The experiment in a line: Antimicrobial activity against Acinetobacter baumannii by broth dilution method in presence of beta-lactamase inhibitor Sulbactam. The class given is functional.
Series [6] deals with Acinetobacter baumannii. The experiment in a line: Antimicrobial activity against Acinetobacter baumannii assessed as resistant isolate by broth dilution method. In kind it is functional.
Series [7] has as its system Acinetobacter baumannii. The experiment in a line: Antimicrobial activity against Acinetobacter baumannii by broth dilution method. The class given is functional.
For series [8], the system named is Acinetobacter baumannii. The experiment in a line: Antimicrobial activity against Acinetobacter baumannii assessed as susceptible isolate by broth dilution method in presence of beta-lactamase inhibitor Sulbactam. In kind it is functional.
The test system of series [9] is Acinetobacter baumannii. The experiment in a line: Antimicrobial activity against Acinetobacter baumannii assessed as susceptible isolate by broth dilution method. The class given is functional.
Series [10] deals with Homo sapiens. The experiment in a line: Cmax in patient at 225 mg, iv every 8 hrs for 2 days. The class given is ADME, organism-based. More on the design: dose 225 mg, route intravenous. To be noted: in vivo.
In series [11] the test system is Homo sapiens. The experiment in a line: Cmax in patient at 225 mg, iv every 12 hrs for 2 days. The class given is ADME, organism-based. More on the design: dose 225 mg, route intravenous. To be noted: in vivo.
The test system of series [12] is Acinetobacter baumannii. The experiment in a line: Antimicrobial activity against Acinetobacter baumannii assessed as mutant prevention concentration. In kind it is functional, organism-based.
The test system of series [13] is Acinetobacter baumannii. The experiment in a line: Antimicrobial activity against Acinetobacter baumannii assessed as mutant prevention concentration require for 90% of isolates. The class given is functional, organism-based.
Series [14] concerns Acinetobacter baumannii. The experiment in a line: Ratio of mutant prevention concentration for Acinetobacter baumannii to MIC for Acinetobacter baumannii. In kind it is functional, organism-based.

In general, MIC50 refers to the lowest concentration that inhibits either 50% of growth or 50% of the strains tested, depending on the study. For orientation: MIC90 means an inhibitory concentration at the 90% level, which refers to growth in some studies and to a panel of isolates in others. On to `C[C@@H](O)[C@H]1C(=O)N2C(C(=O)O)=C(SCCNC=N)C[C@H]12` [IMIPENEM ANHYDROUS], for which the Activity in the series on Acinetobacter baumannii [1] turned out to be 75.7%. For the same molecule, in the series on Acinetobacter baumannii [2], the MIC50 stood at 16 µg/mL and the MIC90 was found to be 128 µg/mL. Further, the Activity with Acinetobacter baumannii [3] is 21.4%.
For the molecule `CC1(C)S[C@@H]2[C@H](NC(=O)[C@H](N)c3ccccc3)C(=O)N2[C@H]1C(=O)O` [AMPICILLIN], the Activity in the series on Acinetobacter baumannii [4] was 81.4%. Besides, in the series with Acinetobacter baumannii [5], the MIC50 turned out to be 128 µg/mL and the MIC90 was greater than 128 µg/mL.
Regarding `CCN1CCN(C(=O)N[C@@H](C(=O)N[C@@H]2C(=O)N3[C@@H]2SC(C)(C)[C@@H]3C(=O)O)c2ccccc2)C(=O)C1=O` [PIPERACILLIN], the Activity is 71.4% in the series on Acinetobacter baumannii [4], 82.9% in the series with Acinetobacter baumannii [6], 17.2% in the series on Acinetobacter baumannii [8] and 10% in the series on Acinetobacter baumannii [9]. The MIC50 is 128 µg/mL (≈ 247 µM) with Acinetobacter baumannii [7] and greater than 128 µg/mL with Acinetobacter baumannii [5]. In addition, the MIC90 in the series with Acinetobacter baumannii [7] and in the series on Acinetobacter baumannii [5] was greater than 128 µg/mL each time.
Consider `O=C(O)c1cn(C2CC2)c2cc(N3CCNCC3)c(F)cc2c1=O` [CIPROFLOXACIN], for which the results for the Activity in the series with Acinetobacter baumannii [6] and in the series on Acinetobacter baumannii [9] were 82.9% and 15.7%, respectively.
As to `CCN[C@@H]1C[C@H](N)[C@@H](O[C@H]2OC(CN)=CC[C@H]2N)[C@H](O)[C@H]1O[C@H]1OC[C@](C)(O)[C@H](NC)[C@H]1O` [NETILMICIN], the Activity with Acinetobacter baumannii [6] is listed as 75.7%. Besides, in the series with Acinetobacter baumannii [7], the MIC50 was greater than 128 µg/mL and the MIC90 is greater than 128 µg/mL. Further, in the series with Acinetobacter baumannii [9], the Activity stood at 20%.
For `CC(C)(O/N=C(\C(=O)N[C@@H]1C(=O)N2C(C(=O)[O-])=C(C[n+]3ccccc3)CS[C@H]12)c1csc(N)n1)C(=O)O` [CEFTAZIDIME], in the series on Acinetobacter baumannii [6], the Activity is on record as 77.1%. Moreover, in the series with Acinetobacter baumannii [7], the MIC50 was greater than 128 µg/mL and the MIC90 was greater than 128 µg/mL. Further, the Activity with Acinetobacter baumannii [9] is reported as 17.2%.
`C[C@@H](O)[C@H]1C(=O)N2C(C(=O)O)=C(S[C@@H]3CN[C@H](C(=O)N(C)C)C3)[C@H](C)[C@H]12` [MEROPENEM]: the figures for the Activity in the series on Acinetobacter baumannii [6] and in the series with Acinetobacter baumannii [9] were 77.1% and 22.9%, respectively. In the series on Acinetobacter baumannii [7], this molecule gave an MIC50 of 32 µg/mL (≈ 83.4 µM). Moreover, the MIC90 against Acinetobacter baumannii [7] stood at 64 µg/mL (≈ 167 µM).
As a reminder, the Cmax is the highest concentration seen after dosing. For COLISTIN [listing 1 of 2 here], the Cmax in the series with Homo sapiens [10] and in the series with Homo sapiens [11] was 2930 ng/mL each time.
Turning to COLISTIN [listing 2 of 2 here], the MPC with Acinetobacter baumannii [12] and in the series with Acinetobacter baumannii [13] was greater than 128 µg/mL throughout. The Activity was 0% in the series with Acinetobacter baumannii [6] and 100% in the series with Acinetobacter baumannii [9]. Moreover, the MIC50 with Acinetobacter baumannii [7] is 1 µg/mL. The molecule further registered an MIC90 in the series with Acinetobacter baumannii [7] of 1 µg/mL. Also, the Ratio with Acinetobacter baumannii [14] was determined as 128.
Take `CCN1CCN(C(=O)N[C@@H](C(=O)N[C@@H]2C(=O)N3C(C(=O)O)=C(CSc4nnnn4C)CS[C@H]23)c2ccc(O)cc2)C(=O)C1=O` [CEFOPERAZONE]: the Activity with Acinetobacter baumannii [4] was determined as 81.4%. In the series with Acinetobacter baumannii [5], the MIC50 was greater than 128 µg/mL and the MIC90 is greater than 128 µg/mL. The Activity in the series on Acinetobacter baumannii [8] was 17.2%.
As to `C[C@H]1COc2c(N3CCN(C)CC3)c(F)cc3c(=O)c(C(=O)O)cn1c23.C[C@H]1COc2c(N3CCN(C)CC3)c(F)cc3c(=O)c(C(=O)O)cn1c23.O` [LEVOFLOXACIN], in the series on Acinetobacter baumannii [6], the Activity came to 32.8%. In addition, in the series on Acinetobacter baumannii [7], the MIC50 came to 4 µg/mL and the MIC90 turned out to be 16 µg/mL. Further, the Activity with Acinetobacter baumannii [9] came to 38.6%.
On the same counts, the results for `NCC[C@H](O)C(=O)N[C@@H]1C[C@H](N)[C@@H](O[C@H]2O[C@H](CN)[C@@H](O)[C@H](O)[C@H]2O)[C@H](O)[C@H]1O[C@H]1O[C@H](CO)[C@@H](O)[C@H](N)[C@H]1O` [AMIKACIN] are 71.4%, greater than 128 µg/mL, greater than 128 µg/mL and 28.6%.
Regarding `CO/N=C(\C(=O)N[C@@H]1C(=O)N2C(C(=O)[O-])=C(C[N+]3(C)CCCC3)CS[C@H]12)c1csc(N)n1`, the Activity worked out at 81.4% in the series on Acinetobacter baumannii [6] and 15.7% in the series with Acinetobacter baumannii [9].
